What was measured:
Type in all cases: biochemical
[1] = target: T1, DapFCT-His (chlamydial DapF, DAP epimerase) (Chlamydia trachomatis, UniProt B0B802); assay: glutamate racemase coupled assay with and without PLP; conditions: 10 uM PLP, D-Glu as substrate, 10 mM MgCl2, 20 mM Tris-Cl pH 8.0, 37 C; required for racemase activity
T1 construct: 6-His tag at 5' end (N-terminal), tag not removed; pTBSG vector, E. coli BL21(DE3); Ni-NTA purified; ~32 kDa
T1 sequence (B0B802 1-275): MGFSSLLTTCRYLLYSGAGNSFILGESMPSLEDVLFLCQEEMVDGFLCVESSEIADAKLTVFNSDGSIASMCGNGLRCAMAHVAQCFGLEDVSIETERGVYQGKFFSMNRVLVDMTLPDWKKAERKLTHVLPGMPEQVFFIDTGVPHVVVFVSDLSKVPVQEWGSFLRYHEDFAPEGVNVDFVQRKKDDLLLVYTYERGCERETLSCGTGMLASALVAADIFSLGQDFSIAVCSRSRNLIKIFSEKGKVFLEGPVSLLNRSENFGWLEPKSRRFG

[2] = target: T1, DapFCT-His (chlamydial DapF, DAP epimerase); assay: glutamate racemase assay coupled to L-glutamate dehydrogenase (NADPH, […] nm); conditions: 10 mM D-Glu as substrate, 10 uM PLP, 10 mM MgCl2, 20 mM Tris-Cl pH 8.0, 37 C; competing substrate
[3] = target: T1, DapFCT-His (chlamydial DapF, DAP epimerase); assay: as above; conditions: 20 mM D-Glu, 10 uM PLP, 10 mM MgCl2, 20 mM Tris-Cl pH 8.0, 37 C; racemization to L-Glu

SMILES: Cc1ncc(COP(=O)(O)O)c(C=O)c1O [pyridoxal phosphate]
- glutamate racemase coupled assay with and without PLP [1]: D-Glu racemization to L-Glu was found to be PLP dependent (Fig. 4a)

SMILES: N[C@@H](CCC[C@H](N)C(=O)O)C(=O)O [L,L-DAP]
- % decrease of glutamate racemase activity at 10 mM L,L-DAP [2]: 47%

SMILES: N[C@H](CCC(=O)O)C(=O)O [D-Glu]
- glutamate racemase assay coupled to L-glutamate dehydrogenase (NADPH, 340 nm) [3]: Purified DapFCT-His was assayed for glutamate racemase activity with D-Glu as the substrate

Source: article PMC5885031, “Chlamydia trachomatis dapF Encodes a Bifunctional Enzyme Capable of Both D-Glutamate Racemase and Diaminopimelate Epimerase Activities” (mBio, 2018)
